From patent US12649727B2, “EFGR inhibitor, preparation method therefor and application thereof” (Abbisko Therapeutics Co., Ltd, priority 2020, dated 2026)

Experiments:
Assay type in all cases: cell-based
A431 (EGFR-WT) = assay: Proliferation experiment, A431 cell line (CellTiter-Glo); conditions: Homo sapiens, A-431; A431 cells, cultured for 72 hrs with compound, CTG analysis
Experimental: [The procedure below names another cell line; the source lists this cell line under the same test.] (§1) Proliferation Experiment of Ba/F3 Cell Line
(§2) (I) Reagents and Materials
(§3) • Fetal bovine serum FBS (GBICO, Cat #10099-141); • CellTiter-Glo® luminescent cell viability assay kit (Promega, Cat #G7572); • Black transparent flat-bottom 96 well plate (Corning®, Cat #3603). (II) Instruments • SpectraMax multi-label microplate reader MD, 2104-0010A; • Carbon dioxide incubator, Thermo Scientific 3100 series; • Biological safety cabinet, Thermo Scientific, 1300 series model A2; • Inverted microscope, Olympus, CKX41SF; • Siemens refrigerator KK25E76TI. (III) Cell Lines and Culture Conditions
(§4) (IV) Experimental Procedures 1. Cell Culture and Inoculation: • (1) Cells in the logarithmic growth phase were harvested and counted using a […]. Cell viability was detected by Trypan Blue Dye Exclusion Method to ensure cell viability above 90%. • (2) The cell concentration was adjusted to reach a desired final density; 90 μL of cell suspension was added to the 96-well plate. • (3) The cells were incubated overnight in the 96-well plate at 37° C., 5% CO2 and at 95% humidity.
(§5) 2. T0 Reference Data: • (1) 10 μL PBS was added to each well of the TO plate containing the cells. • (2) The CTG reagent was thawed and the cell plate was equilibrated to room temperature for 30 min. • (3) An equal volume of CTG solution was added to each well. • (4) The cells were lysed by shaking on an orbital shaker for 5 min. • (5) The cell plate was left at room temperature for 20 min to stabilize the luminescence signal. • (6) The fluorescence signal values of TO were read. 3. Dilution and Addition of Compounds • (1) According to the compound information table, a corresponding volume of DMSO was added to the corresponding compound powder to prepare a 10 mM stock solution. • (2) A 1000-fold, 3.16-fold-diluted compound solution was prepared. • (3) The 1000× diluted compound solution was diluted 100-fold with PBS to prepare a 10-fold compound solution with a maximum concentration of […], including 9 concentrations, with 3.16-fold dilution, and 10 μL of the medicament solution was added to each well of the 96-well plate to seed the cells. Triplicate wells were set for each compound concentration, with a final concentration of DMSO being 0.1%. • (4) The cells were placed in the 96-well plate filled with the medicament at 37° C., 5% CO2 and at 95% humidity, and cultured for 72 hrs before CTG analysis. 4. Fluorescence Signal Reading • (1) The CTG reagent was thawed and the cell plate was equilibrated to room temperature for 30 min. • (2) An equal volume of CTG solution was added to each well. • (3) The cells were lysed by shaking on an orbital shaker for 5 min. • (4) The cell plate was left at room temperature for 20 min to stabilize the fluorescence signal. • (5) The fluorescence values were read. 5. Data Processing
(§6) Data were analyzed using GraphPad Prism 7.0 software and fitted data were regressed using non-linear S-curves to obtain dose-response curves from which IC50 values (in nM) were calculated.

[1] = molecular target: Ba/F3 EGFR-D770-N771ins_SVD (Homo sapiens, UniProt P00533, DUP768-770, cells depend on it); assay: Proliferation experiment of Ba/F3 cell line, EGFR-D770-N771ins_SVD (CellTiter-Glo); conditions: cultured for 72 hrs with compound, CTG analysis, read-out: Ba/F3 EGFR-D770-N771ins_SVD IC50
Experimental: as §1, §2, §3, §4, §5, §6

[2] = molecular target: Ba/F3 EGFR-V769_D770insASV (Homo sapiens, UniProt P00533, DUP767-769, cells depend on it); assay: Proliferation experiment of Ba/F3 cell line, EGFR-V769_D770insASV (CellTiter-Glo); conditions: cultured for 72 hrs with compound, CTG analysis, read-out: Ba/F3 EGFR-V769_D770insASV IC50
Experimental: as §1, §2, §3, §4, §5, §6

Sequence of Ba/F3 EGFR-V769_D770insASV (P00533 with tags, fused parts or gaps DUP767-769): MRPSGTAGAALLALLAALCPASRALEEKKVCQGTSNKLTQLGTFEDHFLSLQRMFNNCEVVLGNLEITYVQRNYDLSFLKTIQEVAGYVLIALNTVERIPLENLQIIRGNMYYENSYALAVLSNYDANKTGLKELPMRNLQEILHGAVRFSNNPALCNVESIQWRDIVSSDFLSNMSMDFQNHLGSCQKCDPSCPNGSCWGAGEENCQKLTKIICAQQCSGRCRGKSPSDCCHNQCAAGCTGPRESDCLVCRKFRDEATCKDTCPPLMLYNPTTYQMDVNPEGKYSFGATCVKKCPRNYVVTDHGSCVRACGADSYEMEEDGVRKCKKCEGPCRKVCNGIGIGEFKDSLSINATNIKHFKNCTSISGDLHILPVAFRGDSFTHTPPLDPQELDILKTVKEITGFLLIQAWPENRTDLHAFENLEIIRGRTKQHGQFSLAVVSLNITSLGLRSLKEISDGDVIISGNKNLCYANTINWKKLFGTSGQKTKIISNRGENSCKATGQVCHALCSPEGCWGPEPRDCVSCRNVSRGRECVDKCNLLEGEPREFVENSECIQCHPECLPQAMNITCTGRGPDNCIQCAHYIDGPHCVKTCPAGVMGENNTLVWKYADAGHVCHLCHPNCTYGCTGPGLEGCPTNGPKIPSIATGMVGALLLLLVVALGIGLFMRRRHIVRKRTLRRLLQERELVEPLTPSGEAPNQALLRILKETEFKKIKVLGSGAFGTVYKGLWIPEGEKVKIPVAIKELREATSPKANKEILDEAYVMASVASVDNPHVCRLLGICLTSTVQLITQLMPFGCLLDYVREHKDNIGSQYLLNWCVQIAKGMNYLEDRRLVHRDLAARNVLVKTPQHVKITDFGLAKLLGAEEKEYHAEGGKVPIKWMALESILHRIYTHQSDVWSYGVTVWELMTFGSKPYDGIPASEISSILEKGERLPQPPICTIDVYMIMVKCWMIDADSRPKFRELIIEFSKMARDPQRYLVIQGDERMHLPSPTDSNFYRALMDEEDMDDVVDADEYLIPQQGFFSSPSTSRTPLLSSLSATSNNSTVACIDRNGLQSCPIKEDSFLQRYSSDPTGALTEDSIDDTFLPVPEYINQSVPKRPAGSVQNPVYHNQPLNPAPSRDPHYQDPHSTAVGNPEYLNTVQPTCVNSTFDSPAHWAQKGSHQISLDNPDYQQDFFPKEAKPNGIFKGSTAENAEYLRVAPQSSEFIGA
Sequence of Ba/F3 EGFR-D770-N771ins_SVD (P00533 with tags, fused parts or gaps DUP768-770): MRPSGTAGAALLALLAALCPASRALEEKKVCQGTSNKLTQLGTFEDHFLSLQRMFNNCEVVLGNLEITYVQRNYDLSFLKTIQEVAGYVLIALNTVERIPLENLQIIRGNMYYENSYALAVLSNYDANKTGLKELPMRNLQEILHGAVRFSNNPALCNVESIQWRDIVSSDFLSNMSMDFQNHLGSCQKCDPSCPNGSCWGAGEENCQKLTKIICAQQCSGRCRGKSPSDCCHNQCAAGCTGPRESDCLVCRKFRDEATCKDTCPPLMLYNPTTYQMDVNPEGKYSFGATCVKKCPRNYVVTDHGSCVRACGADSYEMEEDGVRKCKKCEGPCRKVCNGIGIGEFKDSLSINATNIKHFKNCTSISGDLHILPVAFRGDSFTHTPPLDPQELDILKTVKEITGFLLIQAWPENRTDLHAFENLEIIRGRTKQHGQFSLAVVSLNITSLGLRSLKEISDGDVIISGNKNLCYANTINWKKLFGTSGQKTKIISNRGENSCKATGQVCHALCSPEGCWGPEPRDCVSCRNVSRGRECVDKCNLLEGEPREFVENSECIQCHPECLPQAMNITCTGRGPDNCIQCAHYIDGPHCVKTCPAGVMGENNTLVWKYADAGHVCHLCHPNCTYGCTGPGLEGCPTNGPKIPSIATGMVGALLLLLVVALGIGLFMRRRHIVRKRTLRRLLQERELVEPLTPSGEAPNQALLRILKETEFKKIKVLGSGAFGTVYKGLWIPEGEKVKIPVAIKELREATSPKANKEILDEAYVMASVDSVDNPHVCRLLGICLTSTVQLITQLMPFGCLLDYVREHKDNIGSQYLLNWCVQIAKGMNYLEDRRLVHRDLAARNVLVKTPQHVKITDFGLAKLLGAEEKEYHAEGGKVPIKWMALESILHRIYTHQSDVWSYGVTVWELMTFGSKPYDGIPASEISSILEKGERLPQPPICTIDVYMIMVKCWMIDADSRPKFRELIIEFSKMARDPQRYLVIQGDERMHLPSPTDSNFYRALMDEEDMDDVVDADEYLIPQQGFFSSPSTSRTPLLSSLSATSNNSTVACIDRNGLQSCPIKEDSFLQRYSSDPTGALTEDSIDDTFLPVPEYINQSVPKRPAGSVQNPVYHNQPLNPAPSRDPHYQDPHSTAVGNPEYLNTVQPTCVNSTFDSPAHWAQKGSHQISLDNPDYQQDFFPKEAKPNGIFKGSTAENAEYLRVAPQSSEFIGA

`C=CC(=O)Nc1cc2c(Nc3cccc(-c4ccc(F)cc4F)c3)ncnc2cc1OCCCN1CCOCC1` [Example 1, N-(4-((2′,4′-difluoro-[1,1′-biphenyl]-3-yl)amino)-7-(3-morpholinopropoxy)quinazolin-6-yl)acrylamide] was tested. Which IC50 (A431 (EGFR-WT)) did it give?
The IC50 was 215 nM.

And the GI50 [1]?
Its GI50 is 11.8 nM.

And the GI50 [2]?
Its GI50 is 42.4 nM.

Which IC50 (A431 (EGFR-WT)) does the source give for `C=CC(=O)Nc1cc2c(Nc3cccc(-c4ccc(F)cc4F)c3)ncnc2cc1OCCN1CCOCC1` [Example 3, N-(4-((2′,4′-difluoro-[1,1′-biphenyl]-3-yl)amino)-7-(2-morpholinoethoxy)quinazolin-6-yl)acrylamide] here?
The IC50 was 343 nM.

What about the GI50 [1] of the same compound?
Its GI50 is 38.5 nM.

And the GI50 [2]?
Its GI50 is 117 nM.

With `C=CC(=O)Nc1cc2c(Nc3cccc(-c4ccc(F)cc4F)c3)ncnc2cc1OCCN1CCN(C)CC1` [Example 4, N-(4-((2′,4′-difluoro-[1,1′-biphenyl]-3-yl)amino)-7-(2-(4-methylpiperazin-1-yl)ethoxy)quinazolin-6-yl)acrylamide] as the compound, how does the GI50 [1] read?
The GI50 was 52.5 nM.

What about the GI50 [2] of the same compound?
The GI50 was 175 nM.

`C=CC(=O)Nc1cc2c(Nc3cccc(-c4c(F)cccc4F)c3)ncnc2cc1OCCCN1CCN(C)CC1` [Example 5, N-(4-((2′,6′-difluoro-[1,1′-biphenyl]-3-yl)amino)-7-(3-(4-methylpiperazin-1-yl)propoxy)quinazolin-6-yl)acrylamide] was tested. Which IC50 (A431 (EGFR-WT)) did it give?
The IC50 was 223 nM.

What about the GI50 [1] of the same compound?
The GI50 was 13 nM.

And the GI50 [2]?
Its GI50 is 20.3 nM.

With `C=CC(=O)Nc1cc2c(Nc3cccc(-c4ccc(F)cc4)c3)ncnc2cc1OCCCN1CCOCC1` [Example 6, N-(4-((4′-fluoro-[1,1′-biphenyl]-3-yl)amino)-7-(3-morpholinopropoxy)quinazolin-6-yl)acrylamide] as the compound, how does the IC50 (A431 (EGFR-WT)) read?
Its IC50 is 61.4 nM.

What about the GI50 [1] of the same compound?
The GI50 was 37.5 nM.

What about the GI50 [2] of the same compound?
Its GI50 is 89 nM.

What does the source list for `C=CC(=O)Nc1cc2c(Nc3cccc(-c4ccc(F)cc4F)c3)ncnc2cc1OCCCN1CCN(C)CC1` [Example 7, N-(4-((2′,4′-difluoro-[1,1′-biphenyl]-3-yl)amino)-7-(3-(4-methylpiperazin-1-yl)propoxy)quinazolin-6-yl)acrylamide]?
IC50 (A431 (EGFR-WT)): 238 nM; GI50 [1]: 25.2 nM; GI50 [2]: 28.4 nM

What does the source list for `C=CC(=O)Nc1cc2c(Nc3cccc(-c4ccc(F)cc4F)c3)ncnc2cc1O[C@@H]1CCN(C)C1` [Example 8, (R)-N-(4-((2′,4′-difluoro-[1,1′-biphenyl]-3-yl)amino)-7-((1-methylpyrrolidin-3-yl)oxy)quinazolin-6-yl)acrylamide]?
IC50 (A431 (EGFR-WT)): 343 nM; GI50 [1]: 88.8 nM; GI50 [2]: 178 nM

With `C=CC(=O)Nc1cc2c(Nc3cc(-c4ccc(F)cc4F)ccc3F)ncnc2cc1OCCCN1CCOCC1` [Example 11, N-(7-(3-morpholinopropoxy)-4-((2′,4,4′-trifluoro-[1,1′-biphenyl]-3-yl)amino)quinazolin-6-yl)acrylamide] as the compound, how does the IC50 (A431 (EGFR-WT)) read?
The IC50 was 479 nM.

What about the GI50 [1] of the same compound?
Its GI50 is 29.3 nM.

And the GI50 [2]?
The GI50 was 119 nM.

With `C=CC(=O)Nc1cc2c(Nc3cccc(-c4ccc(F)cc4F)c3)ncnc2cc1OCCCN1CCC(F)(F)CC1` [Example 14, N-(4-((2′,4′-difluoro-[1,1′-biphenyl]-3-yl)amino)-7-(3-(4,4-difluoropiperidin-1-yl)propoxy)quinazolin-6-yl)acrylamide] as the compound, how does the IC50 (A431 (EGFR-WT)) read?
The IC50 was 365 nM.

And the GI50 [1]?
Its GI50 is 34.4 nM.

And the GI50 [2]?
The GI50 was 221 nM.

With `C=CC(=O)Nc1cc2c(Nc3cccc(-c4ccc(F)cc4F)c3)ncnc2cc1OCCCN1CCC(F)(F)C1` [Example 15, N-(4-((2′,4′-difluoro-[1,1′-biphenyl]-3-yl)amino)-7-(3-(3,3-difluoropyrrolidin-1-yl)propoxy)quinazolin-6-yl)acrylamide] as the compound, how does the IC50 (A431 (EGFR-WT)) read?
The IC50 was 498 nM.

And the GI50 [1]?
Its GI50 is 56.1 nM.

What about the GI50 [2] of the same compound?
The GI50 was 137 nM.

Which IC50 (A431 (EGFR-WT)) does the source give for `C=CC(=O)Nc1cc2c(Nc3cccc(-c4ncc(F)cc4F)c3)ncnc2cc1OCCCN1CCOCC1` [Example 17, N-(4-((3-(3,5-difluoropyridin-2-yl)phenyl)amino)-7-(3-morpholinopropoxy)quinazolin-6-yl)acrylamide] here?
The IC50 was 518 nM.

What about the GI50 [1] of the same compound?
Its GI50 is 26.1 nM.

What about the GI50 [2] of the same compound?
The GI50 was 90.9 nM.

For `C=CC(=O)Nc1cc2c(Nc3cccc(-c4ccc(F)cc4F)c3)ncnc2cc1OCCN1CCC(F)(F)C1` [Example 19, N-(4-((2′,4′-difluoro-[1,1′-biphenyl]-3-yl)amino)-7-(2-(3,3-difluoropyrrolidin-1-yl)ethoxy)quinazolin-6-yl)acrylamide], which IC50 (A431 (EGFR-WT)) is on record?
Its IC50 is 597 nM.

And the GI50 [1]?
Its GI50 is 70.5 nM.

And the GI50 [2]?
The GI50 was 177 nM.

With `C=CC(=O)Nc1cc2c(Nc3cc(-c4ccc(F)cc4F)ccc3F)ncnc2cc1OCCCN1CCN(C)CC1` [Example 20, N-(7-(3-(4-methylpiperazin-1-yl)propoxy)-4-((2′,4,4′-trifluoro-[1,1′-biphenyl]-3-yl)amino)quinazolin-6-yl)acrylamide] as the compound, how does the IC50 (A431 (EGFR-WT)) read?
Its IC50 is 252 nM.

And the GI50 [1]?
Its GI50 is 36.5 nM.

And the GI50 [2]?
Its GI50 is 53.9 nM.

How did the IC50 (A431 (EGFR-WT)) turn out when `C=CC(=O)Nc1cc2c(Nc3cccc(-c4ccc(F)cc4F)c3)ncnc2cc1OCCN1CCC(F)(F)CC1` [Example 21, N-(4-((2′,4′-difluoro-[1,1′-biphenyl]-3-yl)amino)-7-(2-(4,4-difluoropiperidin-1-yl)ethoxy)quinazolin-6-yl)acrylamide] was run?
Its IC50 is 966 nM.

What about the GI50 [1] of the same compound?
The GI50 was 104 nM.

And the GI50 [2]?
Its GI50 is 240 nM.

For `C=CC(=O)Nc1cc2c(Nc3cccc(-c4c(F)cccc4F)c3)ncnc2cc1OCCCN1CCN(C(C)C)CC1` [Example 22, N-(4-((2′,6′-difluoro-[1,1′-biphenyl]-3-yl)amino)-7-(3-(4-isopropylpiperazin-1-yl)propoxy)quinazolin-6-yl)acrylamide], which IC50 (A431 (EGFR-WT)) is on record?
The IC50 was 270 nM.

And the GI50 [1]?
Its GI50 is 13.7 nM.

And the GI50 [2]?
The GI50 was 30.6 nM.

`C=CC(=O)Nc1cc2c(Nc3cccc(-c4c(F)cc(F)cc4F)c3)ncnc2cc1OCCCN1CCOCC1` [Example 25, N-(7-(3-morpholinopropoxy)-4-((2′,4′,6′-trifluoro-[1,1′-biphenyl]-3-yl)amino)quinazolin-6-yl)acrylamide] was tested. Which IC50 (A431 (EGFR-WT)) did it give?
The IC50 was 352 nM.

What about the GI50 [1] of the same compound?
The GI50 was 33.9 nM.

And the GI50 [2]?
The GI50 was 106 nM.

`C=CC(=O)Nc1cc2c(Nc3cccc(-n4cccn4)c3)ncnc2cc1OCCN1CCOCC1` [Example 51, N-(4-((3-(1H-pyrazol-1-yl)phenyl)amino)-7-(2-morpholinoethoxy)quinazolin-6-yl)acrylamide] was tested. Which GI50 [1] did it give?
The GI50 was 40.6 nM.

And the GI50 [2]?
Its GI50 is 89.9 nM.

For `C=CC(=O)Nc1cc2c(Nc3cccc(-n4cccn4)c3)ncnc2cc1OCCCN1CCOCC1` [Example 52, N-(4-((3-(1H-pyrazol-1-yl)phenyl)amino)-7-(3-morpholinopropoxy)quinazolin-6-yl)acrylamide], which GI50 [1] is on record?
The GI50 was 10.4 nM.

And the GI50 [2]?
Its GI50 is 17.9 nM.

`C=CC(=O)Nc1cc2c(Nc3cccc(-n4nccn4)c3)ncnc2cc1OCCN1CCOCC1` [Example 54, N-(4-((3-(2H-1,2,3-triazol-2-yl)phenyl)amino)-7-(2-morpholinoethoxy)quinazolin-6-yl)acrylamide] was tested. Which GI50 [1] did it give?
The GI50 was 67.9 nM.

And the GI50 [2]?
Its GI50 is 107 nM.

Which GI50 [1] does the source give for `C=CC(=O)Nc1cc2c(Nc3cccc(-n4nccn4)c3)ncnc2cc1OCCCN1CCOCC1` [Example 55, N-(4-((3-(2H-1,2,3-triazol-2-yl)phenyl)amino)-7-(3-morpholinopropoxy)quinazolin-6-yl)acrylamide] here?
The GI50 was 15 nM.

What about the GI50 [2] of the same compound?
The GI50 was 34.6 nM.

What does the source list for `C=C(F)C(=O)Nc1cc2c(Nc3ccnc(-c4ccccc4F)c3)ncnc2cc1N1CC(F)(F)C1` [Example 107, N-(7-(3,3-difluoroazetidin-1-yl)-4-((2-(2-fluorophenyl)pyridin-4-yl)amino)quinazolin-6-yl)-2-fluoroacrylamide]?
IC50 (A431 (EGFR-WT)): 2500 nM; GI50 [1]: 18.3 nM
